The test system of experiment [1] is human marrow derived mesenchymal stem cells (hMSCs). In words: Peptide immobilisation studies, hMSC proliferation (CyQuant) and FACS. Type of experiment: cell-based. As to conditions: alanine substitution study; for Mean cell number: N-terminally tethered, seeding 5,000 cells per well, CyQuant, mean +/− SEM, n = 3. The source says: Could the antiproliferative activity in vitro of EPL001 in solution be more predictably evoked and investigated more readily if the peptide is instead tethered to the cell culture’s substratum? […] In the first study EPL001 was immobilised by either its N terminus or C terminus and human stem cells exposed accordingly. This followed a confirmation of dissolved EPL001’s antiproliferative activity in the same laboratory (JAH). In the second study, aa sections of EPL001 were substituted with alanine strings prior to tethering, to define a functional biological motif. Into the base of each well of a 24-well plate was inserted a glass coverslip (13mm diameter, borosilicate glass, SLS, Nottingham, UK), upon the upper surface of which had been immobilised an individual peptide using a bioconjugate technique. During preparation of the coverslips, the surfaces were modified with carboxyl (−COOH) or amine (−NH2) groups separately using a published method. The carboxyl on the coverslips or at the end of the peptide sequence were reacted with NHS in the presence of EDC, resulting in a semi-stable NHS ester, which could then be reacted with primary amines (−NH2) on the coverslips or at the end of the peptide sequences to form amide crosslinks. For the carboxyl modified coverslips, the final peptide grafted on to the surface via its NH2 terminus was in the form Glass-CO-NH-Peptide. For the amine modified coverslips, the final peptide grafted on to the surface via its COOH terminus was in the form Glass-NH-CO-Peptide. The concentration of the peptides across the glass was approximately […]. Uncoated glass was used as the reference control. Treatments were in triplicate (i.e. n = 3). The cells used were human marrow derived mesenchymal stem cells (hMSCs, Lonza, Slough, UK, cat No PT-2507). In the EPL001-terminus study they were seeded at 10,000 cells per well; in the alanine substitution study the density was 5,000 cells per well. The cells were maintained in DMEM with 10% FSC. EPL001 and three alanine-substituted versions of it were deployed separately: MKPLTGKVKEFNNI (EPL001), AAAAAGKVKEFNNI (EPL590), MKPLTAAAAEFNNI (EPL545) and MKPLTGKVKEAAAA (EPL104). The peptides in the alanine substitution study were N-terminally tethered to the substrate. Cell numbers were measured by CyQuant® (Invitrogen, Paisley, UK). […] Statistical analysis was by ANOVA using SPSS software.
Four 14-aa peptides were synthesised: MKPLTGKVKEFNNI (EPL001), AAAAAGKVKEFNNI (EPL590), MKPLTAAAAEFNNI (EPL545) and MKPLTGKVKEAAAA (EPL104). The peptides were generated from l-isomer amino acids by solid phase peptide synthesis (Model 9050, Milligen). All peptides were N-terminally tethered to the substrate by a bioconjugate technique. MSCs were derived from human bone marrow and maintained in DMEM with 10% FSC. Cells were seeded on peptide treated surfaces including a glass control in a 24-well plate with cell density 5 x 10^3. The growth inhibitory activity was examined via cell proliferation assays and cell cycle analysis, using PI and Ki-67 staining. The cell phenotype and viability (7-AAD) were analysed by flow cytometry.

The next experiment deals with LNCaP cells. In words: MTS viable cell assay, LNCaP (Epistem). Type of experiment: cell-based, human. As to conditions: over 72h, single dose level. Here is the method: (§1) Further assays on human prostate cancer cells were conducted at a contract research organisation (Epistem, Manchester, UK). LNCaP or DU145 cells seeded at 3,000 cells/well across a 96-well plate were cultured in RPMI (phenol red free), 10% FCS, 1% sodium pyruvate, Pen/strep and L-glutamine for 24h before exposure to peptides, at a single dose level in the case of LNCaPs or multiple dose levels in the case of DU145s. (For dose levels see Results.) Controls received vehicle (1% PBS). For the DU145s peptide administration was repeated after 24h. 72h after the first administration (DU145s) or only administration (LNCaP) total viable cell numbers were measured colorimetrically (MTS) using a CellTiter 96 AQueous One Solution Cell Proliferation Assay (Promega, Southampton, UK), following manufacturer’s instructions. Briefly, the media on the plates was replaced with the CellTiter reagent diluted 1:5 in DMEM. The plates were returned to the incubator for 3 hours before reading absorbance at 492 nm on a FLUORstar OPTIMA (BMG Labtech). CellTiter data are the absorbance minus background values (CellTiter plus DMEM), expressed as (OD mean +/− SEM). Statistical analysis was by ANOVA, Dunnett’s multiple comparisons test.
In general terms: Formazan colour is commonly taken as a measure of viable cells.

In experiment [2] the test system is MCF 7 human breast cancer cells. As to conditions: in words; EPL120 over 72h, dose range 0.04 nM– 4 μM; cited from earlier work.
Another experiment relates to rat bone marrow cells. As to the kind of experiment: Bone marrow cell assay, time-lapse cell counts over 24h. The format is cell-based. As to conditions: EPL001, EPL030 at 6μM, EPL120 at 5μM final concentration, in words (Fig 6). The protocol: The method has been described previously at length. Bone marrow cells, consisting of various cell types including mesenchymal stem cells and fibroblasts, were cultured from adult male rats (Rattus norvegicus, SD strain). These cells were passaged from a growing primary stock in a T75 tissue culture flask (Sarstedt) into a 48 well tissue culture plate (IWAKI), with a cell density of 1 x 10^5/ml. The cell culture media, henceforth referred to as ‘supplemented a-MEMS,’ comprised α-MEMS media supplemented with 10% FCS and 1% penicillin/streptomycin (all Life Technologies, Carlsbad, CA, US). On the day of peptide addition to the cells, the supplemented α-MEMS was gently removed and fresh supplemented α-MEMS added, with 10% test material by volume to achieve micromolar concentrations, untreated controls receiving just fresh supplemented α-MEMS. (For dose levels see legends in respective result figures) All samples were filter sterilised using a Millex-GV […] syringe filter unit (Merck, Kenilworth, NJ, USA). The cells were imaged for 24 h using an incubated Zeiss Axiovert 135M microscope with a Prior Proscan II motorised stage, at 37 °C with a 5% CO2 in air feed. Each well of the 48-well tissue culture plate was then imaged for 24h every 5 min using Metamorph software (MDS Analytical Technologies, Wokingham, UK), with each well having four fields of view. The viability and cell numbers were reviewed by analysing the images captured over the 24h period and cell counts were taken at selected time points using the Metamorph software.
Fig 6 Bone marrow cells in culture exposed to long peptides. Cells were counted over 24h after exposure to the 14mer peptide EPL001 or its scrambled-sequence control EPL030 at 6μM final concentration or to the 20mer EPL120 at 5μM final concentration, compared to peptide-untreated controls.
Fig 7 Bone marrow cells in culture exposed to hexapeptides. Cells were counted over 24h after exposure to either EPL016 (= MKPLTG, the ‘Front 6’ of the 14mer EPL001) or EPL036 (= IEPVFT, the ‘Back 6’ of EPL030, the scrambled-sequence control of EPL001) at 1μM final concentration, compared to peptide-untreated controls.

The next experiment deals with mouse renal cell. As to conditions: in words; cited from earlier work.
For another experiment, the system named is human dental pulp cells. As to conditions: 5μM (single starting dose) in the cell medium; over 7 days; cited from earlier work. The source says:
EPL001 is a found sequence, as described in the Introduction. As a 14mer synthetic peptide it has been represented elsewhere as a minimized ball and stick model in silico [9]. […] An anti-EPL001 antibody administered alone potentiated compensatory renal grow ...

The next experiment has as its system PNT2 cells. As to the kind of experiment: MTS colorimetric viable cell assay, PNT2. Type of experiment: cell-based, human. As to conditions: 30 μM, 27h, 492 nm, triplicate. Here is the method:
(§2) Assays involving a range of peptides from 14mer down to 6mers assessed total viable PC3 or PNT2 cells using a 96-well plate MTS colorimetric assay (CellTiter 96 Aqueous One Solution Cell Proliferation Assay, Promega, Southampton, UK), with absorbance measured at 492 nm. Cells were seeded at 8,000 per well and grown for 27h. Peptides were administered at the outset to a final concentration of 30 μM (in 2 μl) to samples in triplicate. (A higher dosage was used than in the 14mer peptides study to shorten the timecourse of response.) Controls received buffer. Data are OD mean +/ − SEM, with statistical analysis by two tailed t-test. A time course study of the 14mers on PC3s, using the same technique, involved measurements at 24h and 48h.
(§3) Fig 5 Effects of a range of peptides on human prostate cancer cell growth in vitro. Assays involved a range of peptides from 14mers down to 6mers (Table 1), with viable cells assessed using a 96-well plate MTS colorimetric assay. Absorbance measured at 492 nm. Cells were seeded at 8,000 per well and grown for 27h. Peptides were administered at the outset to a final concentration of 30 μM (in 2 μl) to samples in triplicate. Controls received buffer. Data are OD mean +/- SEM, with statistical analysis by two tailed t-test. * p<0.05; **p<0.025.

Another experiment deals with PC3 cells. As to the kind of experiment: MTS colorimetric viable cell assay, PC3. The format is cell-based, human. As to conditions: PC3; 30 μM; 27h; MTS, 492 nm; triplicate. The protocol:
as §2, §3

A further experiment concerns DU145 cells. In words: MTS viable cell assay, DU145 (Epistem). The format is cell-based, human. As to conditions: DU145, 72h. Here is the method:
as §1

For “AAAAAGKVKEFNNI [EPL590, Substituted EPL001; alanines 1–5]”, the “Cell number vs Glass” value in [1] (Day 7) is listed as 16%; in [1] (Day 14) it was −23%. In addition, the results for the Mean cell number in [1] (Day 7) and in experiment [1] (Day 14) were 11,805 +/−4,028 and 20,347 +/−2,264, respectively. In addition, in the experiment on LNCaP cells, the “Reduction in test mean OD versus the vehicle control mean” value is reported as −21.4%.
On to “EPL120: EPL001 Edman sequence tentatively extended 6 further reads, to make a 20mer (MKPLTGKVKEFNNIKGFGVI)”, for which the “Inhibition of IGF-1 stimulated growth in MCF-7 cell numbers” value in experiment [2] is reported as “dose-dependent inhibition”. In addition, the “Effect on bone marrow cells in culture” value in the experiment on rat bone marrow cells is listed as “pro-apoptotic”.
As to “KGNEVMKLFPTINE [EPL010, Scrambled control (Haylor et al, 2009)]”, the “Activity in a mouse renal cell assay in vitro” value in the experiment with mouse renal cell is “inactive”.
Regarding “KVKEFNNI [EPL018, KVKEFNNI, EPL001 Back 8]”, in the experiment on human dental pulp cells, the “Reduction in cell numbers” value was ~ 17%.
For the substance MKPNFN [EPL600], the “Difference in percentage terms between control and test OD means” value in the experiment with PNT2 cells is on record as −39.7%; in the experiment with PC3 cells, −27.3%. Moreover, in the experiment with LNCaP cells, the “Reduction in test mean OD versus the vehicle control mean” value is given as −35.1%. Besides, the “Test mean OD vs control mean” value is “+8.6%” in the experiment on DU145 cells (0.015 μM); −0.1% in the experiment on DU145 cells (0.15 μM); −8.4% in the experiment with DU145 cells (1.5 μM); −7.1% with DU145 cells (15 μM); −16.9% in the experiment with DU145 cells (150 μM (highest concentration)).
As to MKPVFN [EPL601], the entries for the “Difference in percentage terms between control and test OD means” value in the experiment on PNT2 cells and with PC3 cells were −33.2% and −28.0%, respectively. Also, the “Reduction in test mean OD versus the vehicle control mean” value in the experiment with LNCaP cells is recorded as −16.0%. Moreover, the “Test mean OD vs control mean” value is given as “+6.9%” in the experiment on DU145 cells (0.015 μM); −4.3% with DU145 cells (0.15 μM); −10.4% with DU145 cells (1.5 μM); −11.4% in the experiment with DU145 cells (15 μM); −14.3% in the experiment on DU145 cells (150 μM (highest concentration)).

The values above are taken from article PMC9714824, “Hexapeptides from mammalian inhibitory hormone hunt activate and inactivate nematode reproduction” (PLOS ONE, 2022).
